Assay [1] deals with T1, Bcr-Abl^T315I (Homo sapiens, UniProt P00519, T315I).
T1 construct: purchased Millipore
T1 sequence (P00519 242-493 T315I limits assumed): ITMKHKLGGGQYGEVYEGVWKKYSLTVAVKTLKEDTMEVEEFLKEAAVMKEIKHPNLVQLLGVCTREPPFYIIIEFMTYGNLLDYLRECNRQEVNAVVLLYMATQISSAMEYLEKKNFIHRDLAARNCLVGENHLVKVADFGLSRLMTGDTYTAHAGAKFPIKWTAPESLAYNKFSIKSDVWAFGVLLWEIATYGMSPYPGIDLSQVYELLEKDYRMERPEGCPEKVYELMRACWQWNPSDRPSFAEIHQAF
The assay is described as follows: Kinase activation assay (IC50), fluorescence polarization tyrosine kinase assay kit. The following applies: T315I mutation kinase domain (Millipore), Poly (Glu, Tyr) 4:1 substrate, FP readout. In kind it is biochemical. As to the method:
(§1) Test 1: Kinase Activation Assay (IC50)
(§2) A kinase domain (Millipore) comprising the entire cytoplasmic sequences of Bcr-Abl^wt and Bcr-Abl^T315I mutation kinases and a tyrosine kinase assay kit (Panvera, P2837) were used to measure an inhibitory activation on Bcr-abl. Other kinases such as FGFR, Flt, KDR, PDGFR, Fms, Kit, Raf, Tie2, Src, and Ret were also measured by the same method. In order to prepare a sample, the each compound obtained in Examples 1 to 128 was diluted 10 times with a kinase buffer to a concentration of 10˜0.0001 μM.
(§3) The each kinase was diluted with a kinase buffer to a concentration of 30˜300 ng/assay by using the each Kd value. The kinase buffer consisted of 100 mM HEPES (PH 7.4), 25 mM MgCl2, 10 mM MnCl2, and 250 μM Na3VO4, being kept refrigerated after filtered.
(§4) The test was conducted in 96 well polystyrene round bottom plates. First, 10 μL of the diluted sample was combined with 10 μL of the enzyme solution at room temperature for 10 minutes using a shaker. 10 μL of Poly (Glu, Tyr) 4:1 (Sigma) matrix solution in an appropriate concentration and 10 μL of ATP solution (5˜300 μM) were added to the sample and subjected to a reaction at room temperature for 60 minutes in a shaker. After 60 minutes, an EDTA solution was added thereto to complete the kinase reaction and the reaction mixture was left in a shaker for 5 minutes at room temperature. A tracer, an antibody, and a fluorescence polarization (FP) diluted reaction solution were mixed at a ratio of 1:1:3 to prepare a detecting solution, 50 μL of which was added to the each sample and subjected to a reaction at room temperature for 30 minutes in a shaker. As fluorescing, light was blocked out and the FP value was measured using a FP instrument (excitation wavelength: 485 nm, and emission wavelength: 530 nm).
(§5) And the inhibition on kinase reaction was calculated for the sample in the range of 0˜100% as compared to the control group, and the concentration on x-axis at 50% inhibition was obtained as an inhibitory concentration (IC50) value.
(§6) 50% inhibitory concentration (IC50) Y=bottom+(top−bottom)/(1+10exp(X−log IC50)
In general terms: In fluorescence polarisation assays a small probe gives low polarisation when free and higher when bound to something large.

Assay [2] deals with T2, Bcr-Abl^wt (Homo sapiens, UniProt P00519).
T2 construct: purchased Millipore
T2 sequence (P00519 242-493 limits assumed): T1 sequence (P00519 242-493 T315I limits assumed) with I74T
The description is as above. It counts as biochemical. The following applies: kinase domain (Millipore), Poly (Glu, Tyr) 4:1 substrate, FP readout. As to the method:
as §1, §2, §3, §4, §5, §6

Where a chain is given by its changes, count along the chain named. pIC50: −log10 of the molar value.

In general, pIC50 refers to the negative decadic logarithm of the IC50, by convention in mol/L.

For `COc1cccc(C(=O)Nc2ccc(C)c(NC(=O)c3csc4c(N)ncnc34)c2)c1` [Example 65, 4-amino-N-(5-(3-methoxybenzamido)-2-methylphenyl)thieno[3,2-d]pyrimidine-7-carboxamide], the pIC50 in assay [1] was 5.00 to 6.00; in assay [2], 7.00 to 9.00.

Consider `Cc1ccc(NC(=O)c2ccc(C(F)(F)F)cc2)cc1NC(=O)c1csc2c(N)ncnc12` [Example 66, 4-amino-N-(2-methyl-5-(4-(trifluoromethyl)benzamido)phenyl)thieno[3,2-d]pyrimidine-7-carboxamide], for which the negative logarithm of the IC50 (pIC50) in assay [1] is 5.00 to 6.00; in assay [2] it was 6.00 to 7.00.

`Cc1ccc(NC(=O)c2cc(C3CC3)on2)cc1NC(=O)c1csc2c(N)ncnc12` [Example 67, N-(3-(4-aminothieno[3,2-d]pyrimidine-7-carboxyamido)-4-methylphenyl)-5-cyclopropylisoxazol-3-carboxamide]: the pIC50 in assay [1] is 5.00 to 6.00; in assay [2], 7.00 to 9.00.

For the molecule `Cc1cc(C(=O)Nc2ccc(C)c(NC(=O)c3csc4c(N)ncnc34)c2)n(Cc2ccc(F)cc2)n1` [Example 68, 4-amino-N-(5-(1-(4-fluorobenzyl)-3-methyl-1H-pyrazole-5-carboxyamido)-2-methylphenyl)thieno[3,2-d]pyrimidine-7-carboxamide], the pIC50 in assay [1] and in assay [2] was 5.00 to 6.00 in each case.

Regarding `Cc1ccc(NC(=O)c2cccc(C(F)(F)F)c2)cc1NC(=O)c1csc2c(NC3CCCC3)ncnc12` [Example 71, 4-(cyclopentylamino)-N-(2-methyl-5-(3-(trifluoromethyl)benzamido)phenyl)thieno[3,2-d]pyrimidine-7-carboxamide], the results for the pIC50 in assay [1] and in assay [2] were 5.00 to 6.00 and 7.00 to 9.00, respectively.

For the molecule `Cc1ccc(NC(=O)c2ccc(CN3CC[C@H](N(C)C)C3)c(C(F)(F)F)c2)cc1NC(=O)c1csc2c(NC3CC3)ncnc12` [Example 76, (S)-4-(cyclopropylamino)-N-(5-(4-((3-(dimethylamino)pyrrolidin-1-yl)methyl)-3-(trifluoromethyl)benzoamido)-2-methylphenyl)thieno[3,2-d]pyrimidine-7-carboxamide], the pIC50 in assay [1] and in assay [2] was 7.00 to 9.00 throughout.

Regarding `CNc1ncnc2c(C(=O)Nc3cc(NC(=O)c4cc(-n5cnc(C)c5)cc(C(F)(F)F)c4)ccc3C)csc12` [Example 78, N-(2-methyl-5-(3-(4-methyl-1H-imidazole-1-yl)-5-(trifluoromethyl)benzoamido)phenyl)-4-(methylamino)thieno[3,2-d]pyrimidine-7-carboxamide], the pIC50 in assay [1] is 6.00 to 7.00; in assay [2] it was 7.00 to 9.00.

With `Cc1ccc(NC(=O)c2cc(-n3ccnc3C)cc(C(F)(F)F)c2)cc1NC(=O)c1csc2c(NC3CC3)ncnc12` [Example 83, 4-(cyclopropylamino)-N-(2-methyl-5-(3-(2-methyl-1H-imidazole-1-yl)-5-(trifluoromethyl)benzoamido)phenyl)thieno[3,2-d]pyrimidine-7-carboxamide], the pIC50 in assay [1] and in assay [2] was 7.00 to 9.00 each time.

As to `Cc1ccc(NC(=O)c2cc(N3CCOCC3)cc(C(F)(F)F)c2)cc1NC(=O)c1csc2c(NC3CC3)ncnc12` [Example 86], the pIC50 in assay [1] is 6.00 to 7.00; in assay [2], 7.00 to 9.00.

On to `Cc1ccc(NC(=O)c2ccc(CN3CCCN(C)CC3)c(C(F)(F)F)c2)cc1NC(=O)c1csc2c(NC3CC3)ncnc12` [Example 87, 4-(cyclopropylamino)-N-(2-methyl-5-(4-((4-methyl-1,4-diazepan-1-yl)methyl)-3-(trifluoromethyl)benzoamido)phenyl)thieno[3,2-d]pyrimidine-7-carboxamide], for which the pIC50 in assay [1] and in assay [2] was 7.00 to 9.00 in each case.

Take `Cc1ccc(NC(=O)c2cc(N3CCCN(C)CC3)cc(C(F)(F)F)c2)cc1NC(=O)c1csc2c(NC3CC3)ncnc12` [Example 93, 4-(cyclopropylamino)-N-(2-methyl-5-(3-(4-methyl-1,4-diazepan-1-yl)-5-(trifluoromethyl)benzoamido)phenyl)thieno[3,2-d]pyrimidine-7-carboxamide]: the negative-log IC50 (pIC50) in assay [1] and in assay [2] was 7.00 to 9.00 in each case.

For the molecule `CN(C)[C@H]1CCN(c2cc(C(=O)Nc3ccc(F)c(NC(=O)c4csc5c(NC6CC6)ncnc45)c3)cc(C(F)(F)F)c2)C1` [Example 107, (S)-4-(cyclopropylamino)-N-(5-(3-(3-(dimethylamino)pyrrolidine-1-yl)-5-(trifluoromethyl)benzoamido)-2-fluorophenyl)thieno[3,2-d]pyrimidine-7-carboxamide], the results for the pIC50 in assay [1] and in assay [2] were 6.00 to 7.00 and 7.00 to 9.00, respectively.

On to `CCN1CCN(c2cc(C(=O)Nc3ccc(C)c(NC(=O)c4csc5c(NC6CC6)ncnc45)c3)cc(C(F)(F)F)c2)CC1` [Example 110, 4-(cyclopropylamino)-N-(5-(3-(4-ethylpiperazin-1-yl)-5-(trifluoromethyl)benzoamido)-2-methylphenyl)thieno[3,2-d]pyrimidine-7-carboxamide], for which the pIC50 in assay [1] was 6.00 to 7.00; in assay [2], 7.00 to 9.00.

As to `Cc1ccc(NC(=O)c2cc(N3CCC[C@H]3C)cc(C(F)(F)F)c2)cc1NC(=O)c1csc2c(NC3CC3)ncnc12` [Example 113, (R)-4-(cyclopropylamino)-N-(2-methyl-5-(3-(2-methylpyrrolidine-1-yl)-5-(trifluoromethyl)benzoamido)phenyl)thieno[3,2-d]pyrimidine-7-carboxamide], the negative-log IC50 (pIC50) in assay [1] and in assay [2] was 6.00 to 7.00 throughout.

As to `Cc1ccc(NC(=O)c2cc(NC3CCN(C)CC3)cc(C(F)(F)F)c2)cc1NC(=O)c1csc2c(NC3CC3)ncnc12` [Example 116, 4-(cyclopropylamino)-N-(2-methyl-5-(3-(1-methylpiperidine-4-ylamino)-5-(trifluoromethyl)benzoamido)phenyl)thieno[3,2-d]pyrimidine-7-carboxamide], the pIC50 in assay [1] and in assay [2] was 7.00 to 9.00 in each case.

As to `Cc1cn(-c2cc(C(=O)Nc3ccc(F)c(NC(=O)c4csc5c(NC6CC6)ncnc45)c3)cc(C(F)(F)F)c2)cn1` [Example 121, 4-(cyclopropylamino)-N-(2-fluoro-5-(3-(4-methyl-1H-imidazole-1-yl)-5-(trifluoromethyl)benzoamido)phenyl)thieno[3,2-d]pyrimidine-7-carboxamide], the pIC50 in assay [1] and in assay [2] was 7.00 to 9.00 each time.

The values are drawn from US8999973B2, “Thieno[3,2-d]pyrimidine derivatives having inhibitory activity on protein kinases” (Hanmi Science Co., Ltd, priority 2010, dated 2015).
